Experimental data published in ChEMBL document CHEMBL6103619, “Discovery of a Novel CRBN-Recruiting cGAS PROTAC Degrader for the Treatment of Ulcerative Colitis” (J Med Chem, 2025).
The source made the active and inactive calls. The calls are words filed in the database; no cut-off is given here.

Key:
THP-1 [1] = test: Downregulation of IFNB mRNA expression in human THP-1 cells preincubated with compound for 40 hrs followed by HT-DNA addition and measured after 8 hrs by qRT-PCR analysis; type: functional, cell-based; conditions: dose 1.25-10 µM, time 48.0 hrs
THP-1 [2] = test: Inhibition of ds-DNA induced cGAS-STING signaling pathway in human THP-1 cells assessed as reduction in TBK1 phosphorylation preincubated with compound for 40 hrs followed by HT-DNA addition and measured after 8 hrs by Western blot analysis; type: cell-based; conditions: dose 0.7-20 µM, time 48.0 hrs
[3] = Cmax in male C57BL/6 mouse at 1 mg/kg, iv measured after 24 hrs by LC-MS/MS analysis; type: ADME, organism-based; conditions: in vivo
[4] = molecular target: T1, Protein cereblon/Cyclic GMP-AMP synthase (Homo sapiens, UniProt Q96SW2+Q8N884); test: PROTAC activity at CRBN/cGAS in human THP-1 cells assessed as induction of cGAS degradation by measuring maximal efficacy at 20 uM preincubated with compound for 40 hrs followed by HT-DNA stimulation and measured after 8 hrs by Western blot analysis relative to control; type: cell-based; conditions: time 48.0 hrs
Target sequence in this assay (Q8N884 whole entry, looked up): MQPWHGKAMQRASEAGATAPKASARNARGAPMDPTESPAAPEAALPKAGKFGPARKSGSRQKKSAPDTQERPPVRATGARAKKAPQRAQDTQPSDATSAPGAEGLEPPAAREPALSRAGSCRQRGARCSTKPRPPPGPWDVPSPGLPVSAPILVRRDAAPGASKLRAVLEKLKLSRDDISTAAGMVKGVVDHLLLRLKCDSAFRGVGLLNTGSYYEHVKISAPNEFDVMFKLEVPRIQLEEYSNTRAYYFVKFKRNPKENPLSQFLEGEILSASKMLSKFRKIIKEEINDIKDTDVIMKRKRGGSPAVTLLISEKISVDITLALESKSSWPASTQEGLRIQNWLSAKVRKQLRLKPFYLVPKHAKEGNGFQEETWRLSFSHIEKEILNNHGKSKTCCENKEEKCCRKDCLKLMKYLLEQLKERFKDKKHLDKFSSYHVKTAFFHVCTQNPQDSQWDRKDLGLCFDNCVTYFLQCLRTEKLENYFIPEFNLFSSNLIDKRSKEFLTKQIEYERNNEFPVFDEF
Target sequence in this assay (Q96SW2 whole entry, looked up): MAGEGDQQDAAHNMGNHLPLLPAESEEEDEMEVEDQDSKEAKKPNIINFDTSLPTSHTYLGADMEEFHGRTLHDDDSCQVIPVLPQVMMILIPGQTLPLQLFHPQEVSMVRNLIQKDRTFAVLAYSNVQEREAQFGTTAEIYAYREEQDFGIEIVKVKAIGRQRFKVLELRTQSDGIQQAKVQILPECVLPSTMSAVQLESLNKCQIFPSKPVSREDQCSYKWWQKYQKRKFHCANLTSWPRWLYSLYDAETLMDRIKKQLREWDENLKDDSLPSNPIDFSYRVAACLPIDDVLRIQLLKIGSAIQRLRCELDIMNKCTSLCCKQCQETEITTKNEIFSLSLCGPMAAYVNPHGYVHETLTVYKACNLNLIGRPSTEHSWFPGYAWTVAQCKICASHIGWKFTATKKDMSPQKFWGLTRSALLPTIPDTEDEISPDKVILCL

RAW264.7 [5] = test: Inhibition of ds-DNA induced cGAS-STING signaling pathway in mouse RAW264.7 cells assessed as reduction in IRF3 phosphorylation preincubated with compound for 40 hrs followed by HT-DNA addition and measured after 8 hrs by Western blot analysis; type: cell-based; conditions: dose 0.7-20 µM, time 48.0 hrs
THP-1 [6] = test: Cytotoxicity against human THP-1 cells assessed as reduction in cell viability upto 60 uM incubated for 48 hrs by CCK8 assay; type: toxicity, cell-based; conditions: thp-1, 48 h
Mus musculus [7] = test: (§1) Anti-inflammatory activity in DSS-induced ulcerative colitis C57BL/6 mouse model assessed as reduction in mucosal NET formation by measuring reduction in citH3 level in colon at 20 to 50 mg/kg/day, ip preadministered with DSS for 7 days followed by replacement with ultrapure water for 3 days with subsequent compound administration starting from day 4 to 10 and measured on day 11 by immunofluorescence imaging analysis; type: functional, organism-based; conditions: dose 20-50 mg/kg/day, time 8.0 day
[8] = Cytotoxicity against human THP1-Lucia ISG cells assessed as reduction in cell viability upto 60 uM incubated for 48 hrs by CCK8 assay; type: toxicity, cell-based
Mus musculus [9] = test: as §1, with “in” for “in mucosal”, “generation” for “formation”, “Western blot” for “immunofluorescence imaging”; type: functional, organism-based; conditions: dose 20-50 mg/kg/day, time 8.0 day
RAW264.7 [10] = test: Cytotoxicity against mouse RAW264.7 cells assessed as reduction in cell viability upto 60 uM incubated for 48 hrs by CCK8 assay; type: toxicity, cell-based; conditions: raw264.7, 48 h
THP-1 [11] = test: Downregulation of IFNB mRNA expression level in poly(I:C)-induced human THP-1 cells at 20 uM preincubated with compound for 12 hrs followed by poly(I:C) addition and measured after 8 hrs by RT-qPCR analysis; type: functional, cell-based; conditions: time 20.0 hrs
[12] = (§2) Inhibition of dsDNA-induced cGAS signaling pathway in human THP1-Lucia ISG cells preincubated with compound for 24 hrs followed by HT-DNA addition and measured after 24 hrs by QUANTI-Luc luciferase reagent based assay; type: cell-based
THP1-Lucia ISG = test: as §2; type: cell-based; conditions: time 48.0 hrs
Mus musculus [13] = test: as §1, with “improvement” for “reduction in mucosal NET formation by measuring reduction in citH3 level”, “colon pathology” for “colon”, “H and E staining based” for “immunofluorescence imaging”; type: functional, organism-based; conditions: dose 20-50 mg/kg/day, time 8.0 day
[14] = molecular target: T1, Protein cereblon/Cyclic GMP-AMP synthase; test: PROTAC activity at CRBN/cGAS in human THP-1 cells assessed as induction of cGAS degradation at 10 uM preincubated with compound for 40 hrs followed by HT-DNA stimulation and measured after 8 hrs by Western blot analysis relative to control; type: cell-based; conditions: time 48.0 hrs
Target sequence in this assay (Q8N884 whole entry, looked up): as the sequence (Q8N884 whole entry, looked up) above
Target sequence in this assay (Q96SW2 whole entry, looked up): as the sequence (Q96SW2 whole entry, looked up) above

[15] = molecular target: T1, Protein cereblon/Cyclic GMP-AMP synthase; test: PROTAC activity at CRBN/cGAS in human THP-1 cells assessed as induction of cGAS degradation preincubated with compound for 40 hrs followed by HT-DNA stimulation and measured after 8 hrs by Western blot analysis; type: cell-based
[16] = molecular target: T1, Protein cereblon/Cyclic GMP-AMP synthase; test: PROTAC activity at CRBN/cGAS in human THP-1 cells assessed as induction of cGAS degradation at 10 uM preincubated with 1-(6,7-dichloro-9-(1-methyl-1H-pyrazol-3-yl)-1,3,4,5-tetrahydro-2H-pyrido[4,3-b]indol-2-yl)-2-hydroxyethan-1-one for 2 hrs followed by compound addition and measured after 48 hrs by Western blot analysis; type: cell-based
Target sequence in this assay (Q8N884 whole entry, looked up): as the sequence (Q8N884 whole entry, looked up) above
Target sequence in this assay (Q96SW2 whole entry, looked up): as the sequence (Q96SW2 whole entry, looked up) above

[17] = molecular target: T2, Protein cereblon/Cyclic GMP-AMP synthase (Mus musculus) (UniProt Q8C6L5+Q8C7D2); test: (§3) PROTAC activity at CRBN/cGAS in mouse RAW264.7 cells assessed as induction of cGAS degradation preincubated with compound for 40 hrs followed by HT-DNA stimulation and measured after 8 hrs by Western blot analysis; type: cell-based; conditions: time 48.0 hrs
T2 sequence (Q8C6L5 whole entry, looked up): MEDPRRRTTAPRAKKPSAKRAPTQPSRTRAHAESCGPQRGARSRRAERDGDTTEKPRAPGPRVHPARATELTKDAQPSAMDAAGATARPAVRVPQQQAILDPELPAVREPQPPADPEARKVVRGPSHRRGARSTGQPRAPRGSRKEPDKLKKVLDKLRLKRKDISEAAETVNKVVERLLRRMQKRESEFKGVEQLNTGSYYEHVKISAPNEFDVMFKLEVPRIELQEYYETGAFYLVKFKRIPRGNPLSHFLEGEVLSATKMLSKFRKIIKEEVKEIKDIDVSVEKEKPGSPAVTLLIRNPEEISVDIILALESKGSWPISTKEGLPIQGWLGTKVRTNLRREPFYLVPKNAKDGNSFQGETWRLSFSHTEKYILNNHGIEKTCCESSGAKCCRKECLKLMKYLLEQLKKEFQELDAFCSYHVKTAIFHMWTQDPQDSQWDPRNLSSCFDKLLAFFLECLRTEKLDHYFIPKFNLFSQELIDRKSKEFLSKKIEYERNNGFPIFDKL
T2 sequence (Q8C7D2 whole entry, looked up): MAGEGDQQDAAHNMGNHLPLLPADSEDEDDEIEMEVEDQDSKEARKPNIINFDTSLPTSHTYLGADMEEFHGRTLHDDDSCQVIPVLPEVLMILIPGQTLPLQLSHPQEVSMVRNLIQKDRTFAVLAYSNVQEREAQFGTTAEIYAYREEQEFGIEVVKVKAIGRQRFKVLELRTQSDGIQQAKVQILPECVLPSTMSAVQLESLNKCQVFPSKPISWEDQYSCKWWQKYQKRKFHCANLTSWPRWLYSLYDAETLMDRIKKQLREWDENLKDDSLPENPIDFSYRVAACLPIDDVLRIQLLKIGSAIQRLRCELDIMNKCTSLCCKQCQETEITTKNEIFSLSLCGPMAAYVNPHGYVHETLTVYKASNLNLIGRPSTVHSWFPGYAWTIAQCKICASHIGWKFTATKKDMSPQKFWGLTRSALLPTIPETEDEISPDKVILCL

[18] = molecular target: Protein cereblon/Cyclic GMP-AMP synthase (Mus musculus, UniProt Q8C6L5+Q8C7D2); test: as §3; type: cell-based
Protein cereblon/Cyclic GMP-AMP synthase (Mus musculus, UniProt Q8C6L5+Q8C7D2), sequence (Q8C6L5 whole entry): as the sequence (Q8C6L5 whole entry, looked up) above
Protein cereblon/Cyclic GMP-AMP synthase (Mus musculus, UniProt Q8C6L5+Q8C7D2), sequence (Q8C7D2 whole entry): as the sequence (Q8C7D2 whole entry, looked up) above

Mus musculus [19] = test: as §1, with “TNF-alpha secretion” for “mucosal NET formation by measuring reduction in citH3 level”, “ELISA” for “immunofluorescence imaging analysis”; type: functional, organism-based; conditions: dose 20-50 mg/kg/day, time 8.0 day
Mus musculus [20] = test: as §1, with “histopathological score of” for “mucosal NET formation by measuring reduction in citH3 level in”, “11” for “11 by immunofluorescence imaging analysis”; type: functional, organism-based; conditions: dose 20-50 mg/kg/day, time 8.0 day
THP-1 [21] = test: Inhibition of ds-DNA induced cGAS-STING signaling pathway in human THP-1 cells assessed as reduction in STING phosphorylation preincubated with compound for 40 hrs followed by HT-DNA addition and measured after 8 hrs by Western blot analysis; type: cell-based; conditions: dose 0.7-20 µM, time 48.0 hrs
RAW264.7 [22] = test: Inhibition of ds-DNA induced cGAS-STING signaling pathway in mouse RAW264.7 cells assessed as reduction in STING phosphorylation preincubated with compound for 40 hrs followed by HT-DNA addition and measured after 8 hrs by Western blot analysis; type: cell-based; conditions: dose 0.7-20 µM, time 48.0 hrs
THP-1 [23] = test: Downregulation of CXCL10 mRNA expression in human THP-1 cells preincubated with compound for 40 hrs followed by HT-DNA addition and measured after 8 hrs by qRT-PCR analysis; type: functional, cell-based; conditions: dose 1.25-10 µM, time 48.0 hrs
[24] = Cytotoxicity against mouse RAW-Lucia ISG cells assessed as reduction in cell viability upto 60 uM incubated for 48 hrs by CCK8 assay; type: toxicity, cell-based
[25] = Downregulation of cGAS protein level in human THP-1 cells at 10 uM incubated for 48 hrs by MS-based LFQ whole proteome analysis relative to control; type: functional
RAW264.7 [26] = test: Inhibition of ds-DNA induced cGAS-STING signaling pathway in mouse RAW264.7 cells assessed as reduction in TBK1 phosphorylation preincubated with compound for 40 hrs followed by HT-DNA addition and measured after 8 hrs by Western blot analysis; type: cell-based; conditions: dose 0.7-20 µM, time 48.0 hrs
[27] = AUC (0 to infinity) in male C57BL/6 mouse at 1 mg/kg, iv measured after 24 hrs by LC-MS/MS analysis; type: ADME, organism-based; conditions: in vivo
[28] = molecular target: T2, Protein cereblon/Cyclic GMP-AMP synthase (Mus musculus); test: In vivo inhibition of cGAS signaling pathway in DSS-induced ulcerative colitis C57BL/6 mouse model assessed as reduction in cGAS protein level in colon preadministered with DSS for 7 days followed by replacement with ultrapure water for 3 days with subsequent intraperitoneal compound administration starting from day 4 to 10 and measured on day 11 by Western blot analysis; type: functional, organism-based; conditions: dose 20-50 mg/kg/day, route ip, time 8.0 day
THP-1 [29] = test: Downregulation of IFNB mRNA expression level in HSV-1-induced human THP-1 cells at 20 uM preincubated with compound for 12 hrs followed by HSV1 addition and measured after 8 hrs by RT-qPCR analysis; type: functional, cell-based; conditions: time 20.0 hrs
[30] = Half-life in male C57BL/6 mouse at 1 mg/kg, iv measured after 24 hrs by LC-MS/MS analysis; type: ADME, organism-based; conditions: in vivo

Cmax [3]: 1610 ng/mL | Emax [4]: 94.4% | IC50 [12]: 1.8 µM | Activity [14]: 78.9% | DC50 [15]: 0.9 µM | Activity ([15]; time 48.0 hrs): Dose-dependent-effect | Activity [16]: inactive | Activity [17]: Dose-dependent-effect | DC50 [18]: 4.6 µM | AUC(0-inf) [27]: 531 ng·h/mL | half-life [30]: 3 h
SMILES: Cn1ccc(-c2cc(Cl)c(Cl)c3[nH]c4c(c23)CN(C(=O)CNC(=O)CCCC#Cc2cccc3c2CN(C2CCC(=O)NC2=O)C3=O)CC4)n1 (configuration not stated)
Activity (THP-1 [1]): Dose-dependent-effect | inhibition (THP-1 [2]): Dose-dependent-effect | inhibition (RAW264.7 [5]): Dose-dependent-effect | Activity (THP-1 [6]): Non-toxic | Activity (Mus musculus [7]): Active | Activity [8]: Non-toxic | Activity (Mus musculus [9]): Active | Activity (RAW264.7 [10]): Non-toxic | Activity (THP-1 [11]): inactive | inhibition (THP1-Lucia ISG): Dose-dependent-effect | Activity (Mus musculus [13]): Active | Activity (Mus musculus [19]): Active | Activity (Mus musculus [20]): Active | inhibition (THP-1 [21]): Dose-dependent-effect | inhibition (RAW264.7 [22]): Dose-dependent-effect | Activity (THP-1 [23]): Dose-dependent-effect | Activity [24]: Non-toxic | Activity [25]: >80% | inhibition (RAW264.7 [26]): Dose-dependent-effect | inhibition [28]: Dose-dependent-effect | Activity (THP-1 [29]): Active
